Entries after “also recorded” stand apart in the source; their conditions may differ. Read-outs that look alike come from different tables or passages of the source.
Columns and labels:
[1] = 1% aqueous NCT solution, human eyes; cited from earlier work
[2] = test system: proinflammatory cytokines; conditions: cited from earlier work
[3] = chronic rhinosinusitis, pilot study; cited from earlier work
external otitis = conditions: human external otitis; cited from earlier work
[4] = transtympanal injection of 0.1%, 1%, and 10% NCT, mice; cited from earlier work
all classes of pathogens = conditions: cited from earlier work
[5] = purulent coated crural ulcers; cited from earlier work
Staphylococcus aureus = conditions: local administration, mouse model; cited from earlier work
[6] = test system: omniresistant Pseudomonas aeruginosa; conditions: NCT irrigations, three patients; cited from earlier work
[7] = Intraperitoneal injection in Swiss mice; assay type: in vivo; conditions: 1% NCT
Text: NCT is relatively safe and well-tolerated by mammals. For example, as a mild oxidant, tolerability of 1% aqueous NCT solution by human and animal tissue is good.

[8] = Tolerability of inhaled haloamines in anesthetized pig model; conditions: for Arterial partial pressure of oxygen (PaO2) compared to controls: 4 inhalations of 5 mL, hourly over 4 hours; for Heart rate compared to controls: 4 hours measurement
Procedure: A study was designed to evaluate the tolerability of inhalative haloamines in a pig model. NCT was used as a representative haloamine. Anesthetized pigs inhaled test solutions of 1% NCT (n=7), 5% NCT (n=6), or 1% NCT plus 1% ammonium chloride (n=6), and 0.9% saline solution as a control (n=7), respectively. Applications were performed every hour over a four-hour time period, i.e., four inhalations in total, with 5 mL each.
Anesthetized pigs inhaled test solutions of 1% NCT (n=7), 5% NCT (n=6), or 1% NCT plus 1% ammonium chloride (n=6), and 0.9% saline solution as a control (n=7), respectively. Applications were performed every hour over a four-hour period, i.e., 4 inhalations in total, with 5 mL each.
Anesthetized pigs inhaled test solutions of 1% NCT (n=7), 5% NCT (n=6), or 1% NCT plus 1% ammonium chloride (n=6), and 0.9% saline solution as a control (n=7), respectively. Applications were performed every hour within four hours, i.e., 4 inhalations in total, with 5 mL each.
Anesthetized pigs inhaled test solutions of 1% NCT (n=7), 5% NCT (n=6), or 1% NCT plus 1% ammonium chloride (n=6), and 0.9% saline solution as a control (n=7), respectively. Applications were performed every hour over a four-hour period of time, i.e., 4 inhalations in total, with 5 mL each.

viral bronchitis = assay: Inhalation of 1% NCT by human volunteers suffering from viral bronchitis; assay type: in vivo
[9] = test system: infectious conjunctivitis; conditions: in vivo; cited from earlier work
[10] = 1% aqueous NCT solution, rabbit eyes; cited from earlier work

Q: For `O=S(=O)(O)CCNCl` [NCT, N-chlorotaurine], which Tolerability [1] is on record?
A: good

Q: And the “Effect on proinflammatory cytokines” value [2]?
A: down-regulate proinflammatory cytokines

Q: What about the Tolerability [3] of the same compound?
A: good tolerability

Q: And the “Efficacy versus standard medication” value (external otitis)?
A: more effective than a standard medication

Q: What about the “Damage of the inner ear” value [4] of the same compound?
A: did not cause damage of the inner ear

Q: What about the Antimicrobial spectrum (all classes of pathogens) of the same compound?
A: broad-spectrum antimicrobial activity

Q: And the “Induction of resistance of pathogens” value (all classes of pathogens)?
A: resistance of pathogens is not induced

Q: And the “Pain versus chloramine T” value [5]?
A: significantly less pain

Q: What about the “Toxicity versus chloramine T” value [5] of the same compound?
A: less toxic than chloramine T

Q: And the “Inhibition of septic arthritis” value (Staphylococcus aureus)?
A: inhibited septic arthritis

Q: What about the “Eradication of bacteria from the urinary bladder” value [6] of the same compound?
A: possible to eradicate bacteria

Q: What about the Tolerated intraperitoneal dose [7] of the same compound?
A: tolerated up to one mL 1% NCT

Q: What about the “Pulmonary artery pressure compared to saline group” value ([8]; 1% NCT) of the same compound?
A: tended to result in even better values

Q: And the “Alveolo-arterial difference of oxygen partial pressure (AaDO2)” value ([8]; 1% NCT, 4-hour measurement, controls 33.7±9.03, p=0.016)?
A: 21.0±13.09

Q: What about the “Arterial partial pressure of oxygen (PaO2) compared to controls” value ([8]; 1% NCT) of the same compound?
A: No difference in PaO2 to controls

Q: And the “Heart rate compared to controls” value ([8]; 1% NCT)?
A: not significantly different from controls

Q: And the “Tolerability in the bronchopulmonary system upon inhalation” value ([8]; 1% NCT, conclusion from pig and volunteer results)?
A: very well tolerated

Q: And the “Pulmonary artery pressure compared to controls” value ([8]; 5% NCT)?
A: became higher than in the control group; also recorded: significantly higher values

Q: What about the Tolerability upon inhalation ([8]; 5% NCT) of the same compound?
A: very well tolerated

Q: What about the “Alveolo-arterial difference of oxygen partial pressure (AaDO2) compared to the controls” value ([8]; 5% NCT (p=0.99)) of the same compound?
A: not different

Q: And the “Arterial partial pressure of oxygen (PaO2) compared to controls” value ([8]; 5% NCT)?
A: No difference in PaO2 to controls

Q: And the “Heart rate compared to controls” value ([8]; 5% NCT)?
A: not significantly different from controls

Q: And the “Symptoms experienced by patients” value (viral bronchitis; 5 mL of 1% NCT inhaled for 10 minutes 3 times daily for three days)?
A: easier breathing, less coughing and less expectoration

Q: And the “Side effects (symptoms for bronchoconstriction, cough, dyspnea)” value (viral bronchitis; 5 mL of 1% NCT inhaled for 10 minutes 3 times daily for three days, three volunteers)?
A: no side effects detectable

Q: And the “Development of bronchitis after pharyngitis” value (viral bronchitis; one patient, NCT used as a treatment for pharyngitis)?
A: did not develop bronchitis

Q: What about the “Efficacy in infectious conjunctivitis” value [9] of the same compound?
A: data indicating efficacy

Q: What about the Tolerability [10] of the same compound?
A: good
